Measurements published in publication PMC9032987, “Cytotoxic Alkylynols of the Sponge Cribrochalina vasculum: Structure, Synthetic Analogs and SAR Studies” (Marine Drugs, 2022).

Tests used:
Assay type in all cases: cell-based, human
[1] = tested on: WI-38 diploid lung fibroblasts; test: MTT cytotoxicity assay in diploid lung fibroblasts WI-38; conditions: for IC50: MTT, 72 h post addition, confluent cells, estimated from cell viability curve
Description: (§1) Cytotoxicity structure-activity relationship analyses of compounds in NSCLC tumor cells and fibroblasts. Stock solutions (10 mg/mL) of the compounds to be tested were made in DMSO and further diluted with cell culture media prior to structure-activity relationship (SAR) screening as earlier described. To assess anti-tumor activity, the large cell lung carcinoma cell line NSCLC U-1810 (kind gift from Uppsala University) and diploid lung fibroblasts WI-38 [30] were used. U-1810 cells were propagated in RPMI-1640 medium (Sigma-Aldrich, St. Louis, […], USA) supplemented with FBS (10% HyClone) and L-glutamine (2 mmol/L, Invitrogen) while WI-38 fibroblasts were cultured in Eagle’s Minimum Essential Medium (Sigma-Aldrich) with 15% FBS and L-glutamine. For SAR assessment the cytotoxic assay 3-(4,5-dimethylthiazol-2-yl)-2,5 diphenyltetrazolium bromide (MTT) was applied. Profiling of U-1810 cells was carried out at 80% confluency (obtained by seeding 5000 cells/well in a 96-well plate for 24 h prior to treatment) and of WI-38 at 100% confluency (obtained by seeding 18,000 cells/well in a 96-well plate for 24 h prior to compound addition), the later to mimic the behavior of fibroblasts in the human body where they are non-dividing. For SAR evaluation, different concentrations of the compounds were added to fresh media while untreated cells were treated with DMSO corresponding to the amount applied when testing the highest concentration of the different compounds. The cytotoxicity of the compounds was assessed at 72 h post addition to cells by adding MTT solution (0.5 mg/mL, Sigma-Aldrich, 4 h at 37 °C) and dissolving the resulting formazan crystals in an SDS-containing solution (10% SDS and 0.01 mol/L HCl). Absorbance was quantified at 595 nm and the compound-induced cytotoxicity was calculated relative to that observed in DMSO-treated cells. The IC50 values were deduced from survival plots drawn in Graph Pad PRISM software vers.6 and for some of the compounds extrapolated as indicated in footnotes to Table 1.

[2] = tested on: NSCLC U-1810 cells; test: MTT cytotoxicity assay in NSCLC U-1810 cells; conditions: for IC50: MTT, 72 h post addition, estimated from cell viability curve; for viability at 162 µM: U-1810, at 162 µM
Description: as §1

[3] = MTT cytotoxicity assay in diploid lung fibroblasts WI-38; conditions: human, WI-38 diploid lung fibroblasts, 72 h, read-out: cell viability; for viability at 72 h, 188 µM: WI-38, at 188 µM
Description: as §1

[4] = calculated at IC50 (WI-38 IC50 / U-1810 IC50)
[5] = calculated at IC50 of U-1810 and the highest dose applied in WI-38 (IC50 not reached)
[6] = Homo sapiens, 72 h, read-out: cell viability

Compound	IC50 ([1]; Homo sapiens, WI-38, 72 h) [µM]	IC50 ([2]; Homo sapiens, U-1810, 72 h) [µM]	Selectivity NSCLC cells (U-1810) vs. diploid fibroblasts (WI-38) [2, 4]	cytotoxic activity in NSCLC U-1810 cells (in words) [2]	other results
C#CC(O)/C=C/CCCCCCCCCCCCCCC (racemic) [rac-18, rac-Icos-(4E)-en-1-yn-3-ol]	8.3	1.2	6.9	–	–
C#CC(O)/C=C/C=C/CCCCCCCCCCCCCCC (racemic) [rac-27, (4E,6E)-docosa-4,6-dien-1-yn-3-ol]	70	~2.4	–	–	cytotoxicity to WI-38 fibroblasts (in words) [1]: did not affect the viability
C#CC(O)CCCCCCCCC (racemic) [rac-31, Dodec-1-yn-3-ol]	–	15	–	much lower toxicity	–
C#CC(O)CCCCCCCCCCCCCCC (racemic) [rac-32, Octadec-1-yn-3-ol]	75	3	25	–	–
C#CC(O)CCCCCCCCCCCCCCCCC (racemic) [rac-33, Icos-1-yn-3-ol]	> 170	2.8	–	–	viability at 72 h, 170 µM ([3]; WI-38, at 170 µM): ~100%
C#CC(CCCCCCCCCCCCCCC)OS(=O)(=O)c1ccc(C)cc1 (racemic) [rac-35, Octadec-1-yn-3-yl 4-methylbenzenesulfonate]	> 119	23	–	–	viability at 72 h, 119 µM ([3]; WI-38, at 119 µM): ~85%; Selectivity NSCLC cells (U-1810) vs. diploid fibroblasts (WI-38) [2, 5]: >5.2 ^s
C#CC(Cl)CCCCCCCCCCCCCCC (racemic) [rac-36, 3-chlorooctadec-1-yne]	> 175	140	–	–	viability at 72 h, 175 µM ([3]; WI-38, at 175 µM): ~75%; tumor selective cytotoxicity NSCLC vs WI-38 (in words) [2]: did not display any specific cytotoxicity; Selectivity NSCLC cells (U-1810) vs. diploid fibroblasts (WI-38) [2, 5]: >1.3 ^u
C#CC(N)CCCCCCCCCCCCCCC (racemic) [rac-37, Octadec-1-yn-3-amine]	34	29	1.2	–	–
C#CC(CCCCCCCCCCCCCCC)OC (racemic) [rac-38, 3-Methoxyoctadec-1-yne]	> 179	> 179	–	–	viability at 72 h, 179 µM ([3]; WI-38, at 179 µM): ~77%; tumor selective cytotoxicity NSCLC vs WI-38 (in words) [2]: did not display any specific cytotoxicity; viability at 179 µM ([2]; Homo sapiens, U-1810, at 179 µM, 72 h, read-out: cell viability): ~71%
C#CC(CCCCCCCCCCCCCCC)SC(C)=O (racemic) [rac-39, S-Octadec-1-yn-3-yl ethanethioate]	> 154	60	–	–	viability at 72 h, 154 µM ([3]; WI-38, at 154 µM): ~85%; tumor selective cytotoxicity NSCLC vs WI-38 (in words) [2]: did not display any specific cytotoxicity
C#CC(S)CCCCCCCCCCCCCCC (racemic) [rac-40, Octadec-1-yne-3-thiol]	> 177	> 177	–	–	viability at 72 h, 177 µM ([3]; WI-38, at 177 µM): ~100%; tumor selective cytotoxicity NSCLC vs WI-38 (in words) [2]: did not display any specific cytotoxicity; viability at 177 µM ([2]; Homo sapiens, U-1810, at 177 µM, 72 h, read-out: cell viability): ~100%
C#CC(C)(O)CCCCCCCCCCCCCCCC (racemic) [rac-41, 3-Methylnonadec-1-yn-3-ol]	–	> 162	–	–	viability at 162 µM [2, 6]: ~54%
CC#CC(O)CCCCCCCCCCCCCCCCC (racemic) [rac-42, Henicos-2-yn-4-ol]	–	> 162	–	–	viability at 162 µM [2, 6]: ~90%
C#CC(O)c1cccc(CCCCCCCCCCCCCC)c1 (racemic) [rac-45, 1-(3-tetradecylphenyl)prop-2-yn-1-ol]	–	~152	–	–	viability at 76 µM ([2]; Homo sapiens, U-1810, at 76 µM, one experiment, read-out: cell viability): ~70%
C#CC(O)c1ccccc1CCCCCCCCCCCCCC (racemic) [rac-48, 1-(2-tetradecylphenyl)prop-2-yn-1-ol]	–	~50	–	–	–
C#CC(O)c1ccccc1 (racemic) [rac-49, 1-Phenylprop-2-yn-1-ol]	–	> 379	–	did not display any anti-tumor effect	viability at 379 µM ([2]; Homo sapiens, U-1810, at 379 µM, 72 h, read-out: cell viability): ~80%
C#C[C@H](O)/C=C/CCCCCCCCCCCCC(C)C [Compound 1, (3R)-18-Methylnonadec-(4E)-en-1-yn-3-ol]	12	1	12	equally active	tumor selective cytotoxicity NSCLC vs WI-38 (in words) [2]: selectivity at lower doses
C#CC(=O)/C=C/CCCCCCCCC(C)CCCCCC (stereo not shown) [Compound 6, 14-Methylicos-(4E)-en-1-yn-3-one]	73	65	1.1	not active	–
C#C[C@H](O)CCCCCCCCCCC(C)CCCCCC (stereo partly drawn) [Compound 7, (3R)-14-Methylicos-1-yn-3-ol]	> 163	3	–	equally active	tumor selective cytotoxicity NSCLC vs WI-38 (in words) [2]: clear tumor selective activity
C#CC(O)C=CCCCCCCCC1CC1CCCCCC (stereo not shown) [Compound 8]	10	1	10	equally active	tumor selective cytotoxicity NSCLC vs WI-38 (in words) [2]: selectivity at lower doses
C#CC(=O)/C=C/CCCCCCCCC/C=C\CCCCCC [Compound 10, Docos-(4E,15Z)-dien-1-yn-3-one]	30	~80	~0.4	not active	–
C#C[C@H](O)/C=C/CCCCCCCCCCCCCC(C)C [Compound 19, (3R)-19-Methylicos-(4E)-en-1-yn-3-ol]	13	2	6.5	equally active	–
C#C[C@H](O)/C=C/CCCCCCCCCCCCCCCC [Compound 20, (3R)-Henicos-(4E)-en-1-yn-3-ol]	14	1.4	10	equally active	–
C#C[C@H](O)/C=C/CCCCCCCCC/C=C\CCCCC(C)C [Compound 22, (3R)-21-Methyldocos-(4E,15Z)-dien-1-yn-3-ol]	13	1.2	10.8	equally active	–
C#C[C@H](O)/C=C/CCCCCCCCCCCCCCC [Compound R-18, (R,E)-icos-4-en-1-yn-3-ol]	–	–	3.8	–	IC50 [1]: 3.4 µM; IC50 [2]: 0.9 µM
C#C[C@H](O)CCCCCCCCCCCCCCC [Compound R-32, (R)-octadec-1-yn-3-ol]	> 188	1.4	–	–	viability at 72 h, 188 µM [3]: ~60%
C#C[C@@H](O)CCCCCCCCCCCCCCC [Compound S-32, (S)-octadec-1-yn-3-ol]	> 188	140	–	–	viability at 72 h, 188 µM [3]: ~80%
C#C[C@@H](CCCCCCCCCCCCCCC)OC(=O)[C@](OC)(c1ccccc1)C(F)(F)F [R,R-34, (R)-((R)-octadec-1-yn-3-yl)-3,3,3-trifluoro-2-methoxy-2-phenylpropanoate]	> 113	> 113	–	–	viability at 72 h, 113 µM ([3]; WI-38, at 113 µM): ~100%; viability at 113 µM ([2]; Homo sapiens, U-1810, at 113 µM, 72 h, read-out: cell viability): ~100%
C#C[C@H](O)/C=C/CCCCCCCCCCCCCCC [scal-R-18, (R,E)-icos-4-en-1-yn-3-ol]	6.8	1	6.8	–	–
C#C[C@@H](O)/C=C/CCCCCCCCCCCCCCC [scal-S-18, (S)-icos-(4E)-en-1-yn-3-ol]	8.5	1	8.5	–	–
